Read-outs that look alike come from different tables or passages of the source.
Assays:
[1] = test system: AML cell lines and blasts; experiment: Colony forming assay; format: cell-based; conditions: 100 nM, versus vehicle treated control cells
Description: (§1) Clonogenic assays were set up by plating 1×10^3 cell/mL in semi-solid methylcellulose medium (MethoCult, Stem Cell Technologies). Colonies were counted after 10-14 days using an inverted microscope. Growth inhibition assays were measured using a colorimetric MTS assay: 5×10^4 cells were plated in 100 μL final volume in a 96-well plate in the presence of different concentrations of C12 for 24, 48 and 72 hours at 37° C. Afterwards, 20 μL of the CellTiter 96W AQueous One Solution Reagent, which contains tetrazolium compound [3-(4,5-[…])-5-(3-carboxymethoxyphenyl)-2-(4-sulfophenyl)-2H-tetrazolium, inner salt; MTS] and an electron coupling reagent (phenazine ethosulfate; PES) (Promega, Madison Wis.), was added to each well. Within 1-4 hours of incubation at 37° C., the optical density at 490 and 690 nm was measured. Cell viability was calculated with respect to the control samples and reference background wavelength at 690 nm. At least three independent experiments were performed. Growth curve assays were done by counting live cells using Trypan blue exclusion and inverted microscope for >12 days after plating the cells in 1×10^5 concentrations.
(§2) PRMT5 inhibition by C12 was also effective in promoting apoptosis and differentiation.
Colonies were counted 10-14 days after plating and each treatment was carried out in triplicates.

[2] = In vivo pharmacokinetics, plasma concentration; parameters: species or system Mouse; conditions: mouse, in vivo
Text: Pharmacokinetic data of compounds HLCL-7, HLCL-61, and HLCL-66 taken from an in vivo study is illustrated in Table 10. […]

[3] = 24 hr Quick MTD test, one mouse for each dose; format: in vivo
Description: Controlled shRNA depletion was evaluated in a murine lymphoma model (Eμ-BRD2 (Chung, J., et al. (2013) J. Biological Chemistry 288, 35534-35547)) and human xenograft model of glioblastoma (Yan, F., et al (2014) Cancer Research In Press). Referring to FIG. 62A, controlled expression of a PRMT5 shRNA (solid line) but not control shRNA (dashed line) leads to 100% survival of mice engrafted primary DLBCL tumor cells. […] The maximum tolerated dose (MTD, single dose) was identified at 50 mg/kg (see Table 11 below). A sub-toxic dose (25 mg/kg) was used to treat FcMCL mice. Control mice developed peripheral blood and lymph node tumor burden starting day 20 post-engraftment.

[4] = test system: H4R3me2 binding to miR-29b regulatory site; experiment: ChIP assay at miR-29b regulatory site; format: cell-based
Description: Cross-linked chromatin was prepared by incubating cells in 1% formaldehyde for 10 min at room temperature and quenching with ice cold 1M Glycine. Cells were sonicated in 1% SDS lysis buffer and sheared chromatin was used to pull down protein/DNA complexes using antibodies against SP1, p65 (ChIP-grade Millipore), H4R3me2, H3R8me2 (Abcam) and RNA Pol II as positive control and normal IgG (Millipore) as negative control. Reverse cross-linked DNA was purified using QIAquick PCR Purification kit (Qiagen) and quantitative real-time PCR was carried out using SYBER green incorporation and primers designed for either FLT3 promoter region (sequenceF:R:) or miR-29b enhancer region (sequenceF:R:). DNA signals were calculated relative to input DNA amount and in comparison to expression values of negative control IgG.
The regulatory region of pri-miR-29b was later checked for possible docking of PRMT5 (indirect binding) or H3R8me2 and/or H4R3me2 (direct binding) using ChIP assay with and without PRMT5 inhibition. […] The efficiency of miR-29b in modulating SP1 was confirmed by miR-29b gain- and loss-of function assays in AML cells, and significant suppression of SP1 in miR-29b overexpressing cells was detected, while SP1 was re-expressed when cells were treated with miR-29b knockdown (FIGS. 49A and 49B). […]

MOLM-13 = experiment: MTS growth inhibition assay; format: cell-based; conditions: Homo sapiens; MOLM-13, FLT3-ITD+, 48 h
Description: as §1, §2
(§3) Referring to FIGS. 34A and 34B, a colorimetric MTS assay was used to measure the proliferation rate of AML cell lines and primary blasts from patients after 48 hours incubation with a PRMT5 inhibitor compound (HLCL61 or C12). The dose-dependent decrease in absorbance indirectly correlates with the number of metabolically active live cells. The IC50 values represent the concentration of the compound at which 50% cell death was achieved.

OCI-AML3 = experiment: MTS growth inhibition assay; format: cell-based; conditions: Homo sapiens, OCI-AML-3; OCI-AML3, NPM1+, 48 h
Description: as §1, §2, §3

Kasumi-1 = experiment: MTS growth inhibition assay; format: cell-based; conditions: Homo sapiens, Kasumi-1, KIT mutation, read-out: IC50 μM
Description: as §1, §2, §3

KG-1 = experiment: MTS growth inhibition assay; format: cell-based; conditions: Homo sapiens; KG-1, P53 mutation, 48 h
Description: as §1, §2, §3

THP-1 = experiment: MTS growth inhibition assay; format: cell-based; conditions: Homo sapiens; THP-1, FLT3-WT, 48 h
Description: as §1, §2, §3

MV411 = experiment: MTS growth inhibition assay; format: cell-based; conditions: Homo sapiens, MV4-11, MV411, FLT3-ITD+, read-out: IC50 μM
Description: as §1, §2, §3

For CCn1c2ccccc2c2cc(CNCc3ccccc3OC)ccc21 [HLCL-61], the colonies formed [1] was “Significantly fewer colonies”, the concentration at 0.08 h ([2]; ip, 25 mg/kg) was 3150 nM and the concentration at 0.17 h ([2]; ip, 25 mg/kg) was 2280 nM. For the same compound, the concentration at 0.33 h ([2]; ip, 25 mg/kg) was 2040 nM, the concentration at 0.5 h ([2]; ip, 25 mg/kg) was 1830 nM and the concentration at 1 h ([2]; ip, 25 mg/kg) was 1390 nM. It also gave a concentration at 2 h ([2]; ip, 25 mg/kg) of 1500 nM, a concentration at 4 h ([2]; ip, 25 mg/kg) of 712 nM and a concentration at 6 h ([2]; ip, 25 mg/kg) of 696 nM. The concentration at 8 h ([2]; ip, 25 mg/kg) was 332 nM, the concentration at 24 h ([2]; ip, 25 mg/kg) was 1.4 nM and the concentration at 0.08 h ([2]; iv, 5 mg/kg) was 1220 nM. For the same compound, the concentration at 0.17 h ([2]; iv, 5 mg/kg) was 1610 nM, the concentration at 0.33 h ([2]; iv, 5 mg/kg) was 702 nM and the concentration at 0.5 h ([2]; iv, 5 mg/kg) was 994 nM. It also gave a concentration at 1 h ([2]; iv, 5 mg/kg) of 942 nM, a concentration at 2 h ([2]; iv, 5 mg/kg) of 525 nM and a concentration at 4 h ([2]; iv, 5 mg/kg) of 155 nM. It also gave a concentration at 6 h ([2]; iv, 5 mg/kg) of 94.4 nM, a concentration at 8 h ([2]; iv, 5 mg/kg) of 51.1 nM and a concentration at 24 h ([2]; iv, 5 mg/kg) of 6.76 nM. For the same compound, the survival after dosing ([3]; IV-2.5 mg/kg, one mouse) was “Alive 24 hr after”, the survival after dosing ([3]; mouse, in vivo, ip, 50 mg/kg, 24 h) was “Alive 24 hr after” and the “clinical signs after dosing” value ([3]; mouse, in vivo, ip, 100 mg/kg) was “still slow moving”. The survival after dosing ([3]; mouse, in vivo, ip, 200 mg/kg, 24 h) was “Dead within 30 min”, the survival after dosing ([3]; mouse, in vivo, iv, 5 mg/kg, 24 h) was “Alive 24 hr after” and the “clinical signs after dosing (slow moving)” value ([3]; mouse, in vivo, iv, 10 mg/kg) was “dosing but slow”. For the same compound, the survival after dosing ([3]; mouse, in vivo, iv, 10 mg/kg, 24 h) was “Alive 24 hr after”, the survival after dosing ([3]; mouse, in vivo, iv, 20 mg/kg) was “Dead instantly after” and the “binding of H4R3me2 to miR-29b regulatory site” value [4] was “significant decrease in binding”. The IC50 (MOLM-13) was 21.5 µM, the IC50 (OCI-AML3) was 19.1 µM and the IC50 (Kasumi-1; 24 h, 24 h) was 6.99 µM. It also gave an IC50 (Kasumi-1; 48 h, 48 h) of 7.21 µM, an IC50 (Kasumi-1; 72 h, 72 h) of 5.63 µM and an IC50 (KG-1) of 7.21 µM. For the same compound, the IC50 (THP-1) was 16.7 µM, the IC50 (MV411; 24 h, 24 h) was 17.9 µM and the IC50 (MV411; 48 h, 48 h) was 14.1 µM. It also gave an IC50 (MV411; 72 h, 72 h) of 10.9 µM.

— patent US9856218B2, “Inhibitors of PRMT5 and methods of their use” (Ohio State Innovation Foundation, priority 2013, dated 2018)
